Measured values from patent publication US11214594B2, “Antimicrobial peptide having synergistic antibacterial effect with antibiotics on multidrug resistant bacteria, and use thereof” (priority 2016, dated 2022).
Where a SMILES comes first, the peptide text is derived from it. [ ]: non-standard residue; d: D form.

Legend:
MDREC 1238 = type: cell-based, Escherichia coli; details: MDREC 1238; agent alone
Summary of the method: (§1)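 MIC read-out = lowest peptide level with no bacterial proliferation. Strains diluted in MH medium to 2×10^6 CFU; peptide twofold serial dilutions in MH added 1:1 in microtiter wells.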

P. aeruginosa = assay: microbe, parasite or virus in culture; type: cell-based, Pseudomonas aeruginosa
Summary of the method: as §1

MDRPA 2003 = type: cell-based, Pseudomonas aeruginosa; details: MDRPA 2003; agent alone
Summary of the method: as §1

MDRAB 12036 = type: cell-based, Acinetobacter baumannii; details: MDRAB 12036; agent alone
Summary of the method: as §1

MDRST 8009 = type: cell-based, Salmonella typhimurium; details: agent alone
Summary of the method: as §1

S. epidermidis = assay: microbe, parasite or virus in culture; type: cell-based, Staphylococcus epidermidis
Summary of the method: as §1

MDREC 1229 = assay: MIC of antibiotic during combined treatment with antimicrobial peptide; type: cell-based, Escherichia coli
Experimental: (§2) Specifically, the strains described in [Table 2] were prepared and diluted with an MH medium such that the number of bacteria was 2×10^6 colony-forming units (CFUs) per 1 ml, 100 μl of the diluted strains was each aliquoted into a 96-well microtiter plate, and then 50 μl of a peptide solution diluted with the MH medium from the MIC value (solution diluted stepwise at 2: 1) was added to each well. Thereafter, the MIC value of each mixed solution was determined by diluting the antibiotic solution with the MH medium, adding 50 μl of the diluted solution to each well, and performing an experiment even under a reversed condition.

A. baumannii = assay: as above; type: cell-based, Acinetobacter baumannii; details: A. baumannii
Summary of the method: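 First, antibiotic solution is diluted with MH medium; next, the dilution is dispensed into wells containing peptide; finally, the orientation is swapped and MIC of each mixture determined.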

MDRAB 12035 = assay: as above; type: cell-based, Acinetobacter baumannii
Experimental: as §2

[1] = peptide treatment concentration 1 μg/ml
[2] = peptide treatment concentration 2 μg/ml
[3] = peptide treatment concentration 4 μg/ml
[4] = peptide treatment concentration 6 μg/ml
[5] = peptide treatment concentration 8 μg/ml
[6] = peptide treatment concentration 16 μg/ml
[7] = peptide treatment concentration 32 μg/ml
[8] = peptide treatment concentration 64 μg/ml
[9] = combined with peptide at 1 μg/ml
[10] = combined with peptide at 2 μg/ml
[11] = combined with peptide at 4 μg/ml
[12] = combined with peptide at 6 μg/ml
[13] = combined with peptide at 8 μg/ml
[14] = combined with peptide at 16 μg/ml
[15] = combined with peptide at 32 μg/ml
[16] = combined with peptide at 64 μg/ml

CC[C@H](C)[C@H](NC(=O)[C@H](CCCCN)NC(=O)[C@H](Cc1c[nH]c2ccccc12)NC(=O)[C@@H](N)CCCNC(=N)N)C(=O)N[C@@H](Cc1ccccc1)C(=O)N[C@@H](CCCCN)C(=O)N[C@@H](CCCCN)C(=O)N[C@H](C(=O)N[C@H](CC(C)C)C(=O)N[C@@H](CCCCN)C(=O)N[C@@H](CC(C)C)C(=O)N[C@@H](CC(C)C)C(=O)N[C@@H](Cc1c[nH]cn1)C(=O)N[C@@H](CCCCN)C(=O)N[C@@H](Cc1ccccc1)C(=O)N[C@@H](CCCCN)C(=O)N[C@@H](CCCCN)C(=O)N[C@@H](Cc1ccccc1)C(N)=O)[C@@H](C)CC [PapMA-21, RWK IFK KIl KLL HKF KKF-NH2] (H-RWKIFKKI[dL]KLLHKFKKF-NH2; N-terminus assumed)
0 µg/mL: Antibiotic MIC, Erythromycin (MDREC 1229; [7]) | Antibiotic MIC, Linezolid (MDREC 1229; [7]) | Antibiotic MIC, Vancomycin (MDREC 1229; [7]) | Antibiotic MIC, Erythromycin (MDREC 1229; [8]) | Antibiotic MIC, Linezolid (MDREC 1229; [8]) | Antibiotic MIC, Vancomycin (MDREC 1229; [8]) | Antibiotic MIC, Erythromycin (A. baumannii; [15]) | Antibiotic MIC, Linezolid (A. baumannii; [15]) | Antibiotic MIC, Vancomycin (A. baumannii; [15]) | Antibiotic MIC, Erythromycin (A. baumannii; [16]) | Antibiotic MIC, Linezolid (A. baumannii; [16]) | Antibiotic MIC, Vancomycin (A. baumannii; [16])
64 µg/mL: Antibiotic MIC, Erythromycin (MDREC 1229; [2]) | Antibiotic MIC, Linezolid (MDREC 1229; [4]) | Antibiotic MIC, Vancomycin (A. baumannii; [11]) | Linezolid MIC during combined treatment with peptide (MDRAB 12035; [3])
32 µg/mL: Minimal inhibitory concentration MIC (MDREC 1238) | Minimal inhibitory concentration MIC (P. aeruginosa) | Minimal inhibitory concentration MIC (MDRPA 2003) | Minimal inhibitory concentration MIC (MDRAB 12036) | Minimal inhibitory concentration MIC (MDRST 8009) | Antibiotic MIC, Erythromycin (MDREC 1229; [3]) | Antibiotic MIC, Linezolid (MDREC 1229; [5]) | Antibiotic MIC, Erythromycin (A. baumannii; [9]) | Antibiotic MIC, Erythromycin (A. baumannii; [10]) | Antibiotic MIC, Linezolid (A. baumannii; [11]) | Antibiotic MIC, Vancomycin (A. baumannii; [12]) | Erythromycin MIC during combined treatment with peptide (MDRAB 12035; [1]) | Erythromycin MIC during combined treatment with peptide (MDRAB 12035; [2])
1 µg/mL: Antibiotic MIC, Erythromycin (A. baumannii; [13])
2 µg/mL: Antibiotic MIC, Erythromycin (MDREC 1229; [6]) | Antibiotic MIC, Erythromycin (A. baumannii; [12]) | Antibiotic MIC, Linezolid (A. baumannii; [14])
4 µg/mL: Antibiotic MIC, Erythromycin (MDREC 1229; [5])
>128 µg/mL: Minimal inhibitory concentration MIC (S. epidermidis) | Antibiotic MIC, Linezolid (MDREC 1229; [1]) | Antibiotic MIC, Vancomycin (MDREC 1229; [1]) | Antibiotic MIC, Linezolid (MDREC 1229; [2]) | Antibiotic MIC, Vancomycin (MDREC 1229; [2]) | Antibiotic MIC, Vancomycin (MDREC 1229; [3]) | Antibiotic MIC, Vancomycin (MDREC 1229; [4]) | Antibiotic MIC, Linezolid (A. baumannii; [9]) | Antibiotic MIC, Vancomycin (A. baumannii; [9]) | Antibiotic MIC, Linezolid (A. baumannii; [10]) | Antibiotic MIC, Vancomycin (A. baumannii; [10]) | Linezolid MIC during combined treatment with peptide (MDRAB 12035; [1]) | Vancomycin MIC during combined treatment with peptide (MDRAB 12035; [1]) | Linezolid MIC during combined treatment with peptide (MDRAB 12035; [2]) | Vancomycin MIC during combined treatment with peptide (MDRAB 12035; [2])
128 µg/mL: Antibiotic MIC, Erythromycin (MDREC 1229; [1]) | Antibiotic MIC, Linezolid (MDREC 1229; [3]) | Antibiotic MIC, Vancomycin (MDREC 1229; [5]) | Vancomycin MIC during combined treatment with peptide (MDRAB 12035; [3])
16 µg/mL: Antibiotic MIC, Linezolid (MDREC 1229; [6]) | Antibiotic MIC, Vancomycin (MDREC 1229; [6]) | Antibiotic MIC, Linezolid (A. baumannii; [12]) | Antibiotic MIC, Linezolid (A. baumannii; [13]) | Antibiotic MIC, Vancomycin (A. baumannii; [13]) | Erythromycin MIC during combined treatment with peptide (MDRAB 12035; [3])
8 µg/mL: Antibiotic MIC, Erythromycin (MDREC 1229; [4]) | Antibiotic MIC, Erythromycin (A. baumannii; [11]) | Antibiotic MIC, Vancomycin (A. baumannii; [14])
0.25 µg/mL: Antibiotic MIC, Erythromycin (A. baumannii; [14])
